Laboratory results published in PMC7663531, “Synthesis, Molecular Docking Screening and Anti-Proliferative Potency Evaluation of Some New Imidazo[2,1-b]Thiazole Linked Thiadiazole Conjugates” (Molecules, 2020).

Experiments:
[1] = system: BALB/3T3 (murine fibroblast); assay: Anti-proliferative assay in vitro (SRB) on normal cell line BALB/3T3; assay type: cell-based; conditions: Mus musculus, 72 h exposure, tested from 100 to 0.1 µg/mL, Nd: no detectable activity in the used concentrations, DMSO 1%, read-out: BALAB/3T3 IC50 ± SD
Experimental: (§1) The results of anti-proliferative activity were calculated based on the IC50 (inhibitory concentration 50%), the concentration of a tested compound which inhibits 50% of the cells population. IC50 esteems were determined for each examination independently and mean qualities ± SD are introduced in Table 1. The movement of every subordinate at every fixation was tried in three-fold in a solitary test; which was rehashed 3–5 times. The aftereffects of the investigations on against proliferative action of tried mixes are summed up in Table 1
(§2) Cell lines: Hep-G2 (human hepatic disease) and BALB/3T3 (murine fibroblast) are being kept up in the Institute of Cancer, Cairo, Egypt. All malignant growth cell lines were obtained from American Type Culture Collection (Rockville, Maryland, USA) and kept up in the Institute of Cancer. HepG2 cells were refined in Eagle’s minimum essential medium (EMEM) and supplemented with 10% FBS; DMEM and RPMI1640 were choices for that function also. Suction included new culture medium each 2–3 days. HepG2 cell multiplying time was 48 h. BALB/3T3 cell line was refined in DMEM and enhanced with 2 mM L-glutamine, 10% fetal ox-like serum (GE Healthcare, Logan, UT, USA). To entry cells, cell monolayer with 1× PBS were flushed twice and pre-warmed (37 °C) 0.05% Trypsin-EDTA arrangement was added to cover the lower part of the jar; brooded for 5–7 min. As cells withdrew, the trypsin was killed by including 4× volume of complete development medium with 10% FBS and delicately suspended the cells by pipetting. To abstain from clustering, the phones were not upset by shaking the jar while sitting tight for separation. Split cells 1:4 at regular intervals or 1:8 like clockwork. Societies had been brooded at 37 °C in a humidified climate with 5% CO2.
(§3) All compounds were broken up in DMSO (stock arrangement 10 mg/mL) and consequently weakened in culture medium to arrive at the necessary fixations (going from 100 to 0.1 µg/mL).
(§4) 24 h before expansion of the tried exacerbates, the cells were plated in 96-well plates (Sarstedt, Germany) at thicknesses of 1 × 10^4 cells per well. The examination was performed after 72 h introduction to shifting centralizations of the tried mixes. The in vitro cytotoxic impact of all mixes was analyzed utilizing the SRB measure.
(§5) The subtleties of this strategy were depicted by Skehan et al.. The cells were joined to the lower part of plastic wells by fixing them with cold half TCA (trichloroacetic corrosive, Sigma-Aldrich Chemie GmbH, Steinheim, Germany) on the head of the way of life medium in each well. The plates were hatched at 4 °C for 1 h and afterward washed multiple times with faucet water. The cell material fixed with TCA was recolored with 0.4% sulphorhodamine B (SRB, Sigma-Aldrich Chemie GmbH, Steinheim, Germany) disintegrated in 1% acidic corrosive for 30 min. Unbound color was taken out by flushing (multiple times) in 1% acidic corrosive. The protein-bound color was removed with 10 mMunbufferedTris base for assurance of the optical thickness (λ = 540 nm) in Synergy H4 multi-mode microplate peruser (BioTek Instruments, Winooski, VT, USA).

[2] = system: HepG2 cells; assay: Anti-proliferative assay in vitro (SRB) on hepatic cancer cell line HepG2; assay type: cell-based; conditions: Homo sapiens, 72 h exposure, tested from 100 to 0.1 µg/mL, Nd: no detectable activity in the used concentrations, DMSO 1%, read-out: HepG2 IC50 ± SD
Experimental: as §1, §2, §3, §4, §5

Row | SMILES | melting point [°C] | IC50 [1] [mg/L] | IC50 [2] [mg/L]
1 | CC(=O)c1nn(-c2ccc(C)cc2)c(=NN=C(C)c2sc3nc(-c4ccc(C)cc4)cn3c2C)s1 [Compound 6a, 1-(5-((1-(3-Methyl-6-(p-tolyl)imidazo[2,1-b]thiazol-2-yl)ethylidene)hydrazono)-4-(p-tolyl)-4,5-dihydro-1,3,4-thiadiazol-2-yl)ethanone] | 220 to 222 | 25.1 ± 12 | 63.3 ± 12.8
2 | CCOC(=O)c1nn(-c2ccc(Br)cc2)c(=NN=C(C)c2sc3nc(-c4ccc(C)cc4)cn3c2C)s1 [Compound 6f, Ethyl 4-(4-bromophenyl)-5-((1-(3-methyl-6-(p-tolyl)imidazo[2,1-b]thiazol-2-yl)ethylidene) hydrazono)-4,5-dihydro-1,3,4-thiadiazole-2-carboxylate] | 156 to 158 | – | 57.5 ± 6.61
3 | COc1cccc2c1C(=O)c1c(O)c3c(c(O)c1C2=O)C[C@@](O)(C(=O)CO)C[C@@H]3O[C@H]1C[C@H](N)[C@H](O)[C@H](C)O1 [Doxorubicin, reference compound] | – | 3.21 ± 0.32 | 3.56 ± 0.46
4 | CCOC(=O)c1nn(-c2ccc(C)cc2)c(=NN=C(C)c2sc3nc(-c4ccc(C)cc4)cn3c2C)s1 [Compound 6e, Ethyl 5-((1-(3-methyl-6-(p-tolyl)imidazo[2,1-b]thiazol-2-yl)ethylidene)hydrazono)-4-(p-tolyl)-4,5-dihydro-1,3,4-thiadiazole-2-carboxylate] | 117 to 119 | – | –
5 | CC(=O)c1nn(-c2ccc(Cl)cc2)c(=NN=C(C)c2sc3nc(-c4ccc(C)cc4)cn3c2C)s1 [Compound 6c, 1-(4-(4-Chlorophenyl)-5-((1-(3-methyl-6-(p-tolyl)imidazo[2,1-b]thiazol-2-yl)ethylidene) hydrazono)-4,5-dihydro-1,3,4-thiadiazol-2-yl)ethanone] | 192 to 194 | – | –
6 | CSC(=S)N/N=C(\C)c1sc2nc(-c3ccc(C)cc3)cn2c1C [Compound 3, methyl 2-(1-(3-methyl-6-(p-tolyl)imidazo[2,1-b]thiazol-2-yl)ethylidene) hydrazinecarbodithioate] | 182 to 184 | – | –
7 | CC(=NN=c1sc(-c2ccccc2)nn1-c1cccc(-n2nc(-c3ccccc3)sc2=NN=C(C)c2sc3nc(-c4ccc(C)cc4)cn3c2C)c1)c1sc2nc(-c3ccc(C)cc3)cn2c1C [Compound 10, 1,3-Bis(2-((1-(3-methyl-6-(p-tolyl)imidazo[2,1-b]thiazol-2-yl)ethylidene)hydrazono)-5-phenyl-1,3,4-thiadiazol-3(2H)-yl)benzene] | > 300 | 26.2 ± 3.21 | 23.5 ± 4.48
8 | CC(=O)c1nn(-c2ccc(S(=O)(=O)c3ccc(-n4nc(C(C)=O)s/c4=N\N=C(/C)c4sc5nc(-c6ccc(C)cc6)cn5c4C)cc3)cc2)/c(=N/N=C(\C)c2sc3nc(-c4ccc(C)cc4)cn3c2C)s1 [Compound 12, 1,1’-(4,4’-(Sulfonylbis(4,1-phenylene))bis(5-((1-(3-methyl-6-(p-tolyl)imidazo[2,1-b]thiazol-2-yl)ethylidene)hydrazono)-4,5-dihydro-1,3,4-thiadiazole-4,2-diyl))diethanone] | > 300 | 8.34 ± 1.81 | 12.7 ± 1.36
9 | CC(=NN=c1sc(C(=O)Nc2ccccc2)nn1-c1ccc([N+](=O)[O-])cc1)c1sc2nc(-c3ccc(C)cc3)cn2c1C [Compound 6h, 5-((1-(3-Methyl-6-(p-tolyl)imidazo[2,1-b]thiazol-2-yl)ethylidene)hydrazono)-4-(4-nitrophenyl)-N-phenyl-4,5-dihydro-1,3,4-thiadiazole-2-carboxamide] | 241 to 243 | – | –
10 | CC(=NN=c1sc(C(=O)Nc2ccccc2)nn1-c1ccccc1)c1sc2nc(-c3ccc(C)cc3)cn2c1C [Compound 6g, 5-((1-(3-Methyl-6-(p-tolyl)imidazo[2,1-b]thiazol-2-yl)ethylidene)hydrazono)-N,4-diphenyl-4,5-dihydro-1,3,4-thiadiazole-2-carboxamide] | 209 to 211 | 76.7 ± 4.14 | 33.2 ± 8.25
11 | CCOC(=O)c1nn(-c2ccccc2)c(=NN=C(C)c2sc3nc(-c4ccc(C)cc4)cn3c2C)s1 [Compound 6d, Ethyl 5-((1-(3-methyl-6-(p-tolyl)imidazo[2,1-b]thiazol-2-yl)ethylidene)hydrazono)-4-phenyl-4,5-dihydro-1,3,4-thiadiazole-2-carboxylate] | 235 to 237 | – | 41.1 ± 8.32
12 | COc1ccc(-n2nc(C(C)=O)sc2=NN=C(C)c2sc3nc(-c4ccc(C)cc4)cn3c2C)cc1 [Compound 6b, 1-(4-(4-Methoxyphenyl)-5-((1-(3-methyl-6-(p-tolyl)imidazo[2,1-b]thiazol-2-yl)ethylidene) hydrazono)-4,5-dihydro-1,3,4-thiadiazol-2-yl)ethanone] | 216 to 218 | – | 59.2 ± 9.27
13 | CC(=NN=c1sc(-c2ccccc2)nn1-c1ccccc1)c1sc2nc(-c3ccc(C)cc3)cn2c1C [Compound 6i, 2-(1-((3,5-Diphenyl-1,3,4-thiadiazol-2(3H)-ylidene)hydrazono)ethyl)-3-methyl-6-(p-tolyl) imidazo[2,1-b]thiazole] | 273 to 275 | – | –
14 | CC(=O)c1nn(-c2cccc(-n3nc(C(C)=O)s/c3=N\N=C(/C)c3sc4nc(-c5ccc(C)cc5)cn4c3C)c2)/c(=N/N=C(\C)c2sc3nc(-c4ccc(C)cc4)cn3c2C)s1 [Compound 11, 1,1’-(4,4’-(1,3-Phenylene)bis(5-((1-(3-methyl-6-(p-tolyl)imidazo[2,1-b]thiazol-2-yl)ethylidene)hydrazono)-4,5-dihydro-1,3,4-thiadiazole-4,2-diyl))diethanone] | 292 to 294 | – | –
